Consider 1 sequence from paper PMC10818749, “Toxicity Studies of Cardiac-Targeting Peptide Reveal a Robust Safety Profile” (Pharmaceutics, 2024).

For one series, the target named is KvLQT1/minK (Homo sapiens, UniProt P15382+P51787). The series is described as follows: KvLQT1/minK ion channel assay. The settings on record: SAFETYscan ion channel assay, up to 30 µM. The class given is cell-based. The procedure: Ion Channel Assays: Cell lines were grown, plated, and loaded with 1× loading buffer containing 1× dye and 2.5 mM freshly prepared probenecid. Assays were performed, and activity was measured using a FLIPR Tetra. Percent of activation and percent of inhibition were calculated to determine agonist and antagonist activity, respectively. […]
The FLIPR Potassium Assay Kit from Molecular Devices is used. It exploits the permeability of thallium ions (Tl+) through both voltage-and ligand-gated potassium (K+) channels. A novel, highly-sensiti ve
Tl+ indicator dye is utilized which produces a bright fluorescent signal upon the binding to Tl+ conducted through potassium chan-nels. […]
KINOMEscan® Assay fluorescence for improved signal/noise ratio.
The KINOMEscan screening platform employs a novel and propri- Membrane Potential Assay etary active site-directed competition binding assay to quantitatively The FLIPR® Membrane Potential Assay Kit is used which utilizes a pro-measure interactions between test compounds and the kinases. prietary fluorescent indicator dye in combination with a quencher to This robust and reliable assay technology affords investigators the reflect real-time membrane potential changes associated with ion ability to extensively annotate compounds with accurate, precise channel activation and ion transporter proteins. […]

Series [1] concerns human left ventricular myocyte cell line. Briefly: Fluorescence-activated cell sorting (FACS) live-dead viability. The class given is cell-based. The note with it: 10 µM, 30 min incubation, live-dead stain, biological triplicates and technical quadruplicates (n = 4), vs no treatment or vehicle. On the procedure:
Fluorescence-Activated Cell Sorting Assays: CTP was tested in a human left ventricular myocyte cell line (Celprogen, Torrance, CA, USA; cat #36044-15) for uptake and assessment of its effects on cell viability. Cells were plated onto 6-well plates at a density of 100,000 cells per well and incubated overnight at 37 °C/5% CO2. The following day media was replaced with fresh media containing 10 µM CTP-Cy5.5, or a random (RAN-CY5.5) peptide. A yellow live-dead stain (Invitrogen, Carlsbad, CA, USA; cat #L34968) was added to all wells, including the negative control or vehicle only treated controls, and cells were incubated for 30 min, after which media aspirated, cells washed 3× with pre-warmed phosphate-buffered saline (PBS), trypsinized, and collected. After collection, cells were washed once with PBS, fixed with 2% paraformaldehyde at room temperature for 10 min, washed once again and resuspended in 1000 µL of PBS. Fluorescence activated cell sorting (FACS) was performed using lasers selected for live-dead and Cy5.5 fluorophores, and 10,000 cells counted in Fortessa. The data generated were gated on the presence of the live-dead stain providing the percent viability of cells [(live/(live + dead cells)) × 100] after treatment with various peptides.

Series [2] has as its system CD1, wild type, adult mice. Briefly: Cardiac MRI pre- and post-CTP injection. In kind it is in vivo, mouse. The note with it: male or female mice; immediately after CTP 150 µg/Kg i.v.; vs baseline. The procedure:
Cardiac Function Studies, Pre- and Post-Injections: Six CD1, wild type, 6–8-week-old adult mice were obtained from the Charles River and used for cardiac MRI studies. Mice were weighed, anesthetized with 2.5% isoflurane, and ear tags removed before being inserted into the MRI scanner. A baseline cardiac MRI was performed, followed by intravenous CTP injection (150 µg/Kg). Post-injection, a second cardiac MRI was performed.

A further series has as its system seven ion channels. The series is described as follows: Eurofins Ion Channel Cardiac Profiler Panel (all seven channels). In kind it is cell-based, human. The note with it: CTP 0.1 to 30 µM.
In the next series the test system is cardiomyocytes. The note with it: cited from earlier work. The source says:
Targeted delivery of therapeutics specifically to cardiomyocytes would open up new frontiers for common conditions like heart failure. […] CTP has been used to deliver imaging agents, small drug molecules, photosensitizing nanoparticles, exosomes, and even miRNA to cardiomyocytes. As a natural extension to the development of CTP as a clinically viable ... || Advances in the development of novel technologies in pharmaceutics today necessitate the development of safe and effective targeted delivery methods for cargoes such as nanoparticles, siRNA, drugs, and more. Cell-penetrating peptides (CPPs), which are small, positively charged peptides capable of crossing the cell membrane barrier, provide a promising method for intracellular delivery, which is highly efficient and minimally cytotoxic. Tat (HIV trans-activator of transcription) was the first CPP to be discovered to enter the cell and induce the expression of viral genes ... || Heart disease and cardiac illness continue to be a leading cause of death in the US [16], and, as such, novel treatments for increasingly prevalent conditions such as heart failure and atrial fibrillation are sorely needed.

“Also recorded” adds a separate entry of the source. Ends that are not written are not given here.

KvLQT1/minK, sequence (P51787 whole entry): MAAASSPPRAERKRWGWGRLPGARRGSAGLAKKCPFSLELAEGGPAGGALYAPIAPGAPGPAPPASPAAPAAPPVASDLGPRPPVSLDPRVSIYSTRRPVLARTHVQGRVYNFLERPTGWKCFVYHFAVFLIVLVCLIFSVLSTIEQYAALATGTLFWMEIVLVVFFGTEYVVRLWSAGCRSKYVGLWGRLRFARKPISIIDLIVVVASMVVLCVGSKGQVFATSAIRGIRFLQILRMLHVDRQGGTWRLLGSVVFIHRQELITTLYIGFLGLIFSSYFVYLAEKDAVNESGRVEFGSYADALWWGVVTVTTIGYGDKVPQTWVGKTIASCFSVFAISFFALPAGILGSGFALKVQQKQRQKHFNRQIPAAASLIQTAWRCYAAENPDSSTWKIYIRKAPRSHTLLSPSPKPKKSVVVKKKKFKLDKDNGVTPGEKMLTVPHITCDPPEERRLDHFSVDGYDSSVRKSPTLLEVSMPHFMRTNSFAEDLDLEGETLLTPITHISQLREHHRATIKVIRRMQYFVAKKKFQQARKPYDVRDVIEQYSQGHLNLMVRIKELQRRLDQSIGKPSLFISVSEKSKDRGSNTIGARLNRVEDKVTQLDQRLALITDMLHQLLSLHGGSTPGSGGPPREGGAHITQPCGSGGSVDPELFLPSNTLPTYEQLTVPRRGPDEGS

In the case of APWHLSSQYSRT [CTP], at KvLQT1/minK, the blocking or activation result is “no significant blocking or activation” and the opening action result is reported as “nor any significant opening action”. Moreover, in series [1], the cell viability result is “remained unchanged”. For the same sequence, in series [2], the cardiac output entry is “no significant change”, the ejection fraction result is “no significant change”, the heart rate result was “no significant change” and the left ventricular mass result is listed as “no significant change”. The IC50 values result in the series on seven ion channels (seven ion channels) is reported as “not calculable”. The “inhibition/activation across all seven ion channels” value with seven ion channels (vs control substances) is on record as “no inhibition/activation was observed; also recorded: did not inhibit the activation of any tested”. In the series on cardiomyocytes (fibroblasts, endothelial cells, myofibroblasts spared, ref [19]), the “cell specificity in the heart” value is reported as “targets cardiomyocytes specifically while sparing the other cells”. Also, the “time to targeting of cardiomyocytes after intravenous injection” value in the series on cardiomyocytes (intravenous injection, "in as little as", ref our prior work) is recorded as around 5 min. In addition, in the series with cardiomyocytes (peripheral intravenous injection, "in as little as", ref [6],[15]), the “time to transduction of cardiomyocytes after intravenous injection” value is around 15 min. For the same sequence, in the series on cardiomyocytes (ref [15]), the “blood–brain barrier crossing” value is “does not cross the blood–brain barrier” and the “uptake by other tissues” value is on record as “not taken up by the lungs, spleen, or other muscle subtypes”.
